In data set [1] the test system is B-cell non-Hodgkin lymphoma. The data set is described as follows: Single agent (monotherapy) clinical study in B-cell non-Hodgkin lymphoma patients. It counts as in vivo.
Data set [2] can be described thus: Environmental stability (heat, acid, base). It counts as physicochemical.
The nature of data set [3]: Safety in single dose studies in healthy subjects. It counts as in vivo, human.

The source of these data is US20140142129A1, “METHODS OF TREATING A DISEASE OR DISORDER ASSOCIATED WITH BRUTON'S TYROSINE KINASE” (Celgene Avilomics Research, Inc,, priority 2012, published 2014).

For the compound `C=CC(=O)Nc1cccc(Nc2nc(Nc3ccc(OCCOC)cc3)ncc2F)c1.O=S(=O)(O)c1ccccc1` [Compound 1 besylate, N-(3-(5-fluoro-2-(4-(2-methoxyethoxy)phenylamino)pyrimidin-4-ylamino)phenyl)acrylamide benzenesulfonic acid salt], the “patients with stable disease continuing on treatment” value in data set [1] (B-cell non-Hodgkin lymphoma, monotherapy, as of Sep. 11, 2012) is 9 out of 17. In addition, in data set [1] (evaluable B-NHL patients, monotherapy), the “patients with decreased lymph node size” value is on record as “Six of eleven”. In data set [2], the “environmental instabilities (heat, acid, base)” value is given as “no environmental instabilities”.
As for `C=CC(=O)Nc1cccc(Nc2nc(Nc3ccc(OCCOC)cc3)ncc2F)c1` [Compound 1, N-(3-(5-fluoro-2-(4-(2-methoxyethoxy)phenylamino)pyrimidin-4-ylamino)phenyl)acrylamide], the “maximum tolerated dose (MTD)” value in data set [1] (single agent, up to 750 mg PO QD) is on record as “has not yet been reached”. Moreover, the safety result in data set [3] is “adequate safety”.
